Data set [1] concerns the target T1, CYP2D6 (Homo sapiens, UniProt P10635).
T1 construct: isoform-specific substrates incubated with human liver microsomes; tissue Eurofins ITEMG232 (protocol number); host or cells: human liver microsomes
Nature of the data set: CYP inhibition in human liver microsomes (Eurofins ITEMG232). The data set is classed as in vitro ADME. Particulars: probe dextromethorphan, substrate dextromethorphan, read-out: CYP2D6 Inh %.

For data set [2], the target named is T2, CYP2C19 (Homo sapiens, UniProt P33261).
T2 construct: isoform-specific substrates incubated with human liver microsomes; tissue Eurofins ITEMG232 (protocol number); host or cells: human liver microsomes
The data set is described as above. The data set is classed as in vitro ADME. Particulars: human, probe omeprazole, substrate omeprazole, read-out: CYP2C19 Inh %.

Data set [3] deals with T3, human recombinant AT2 receptor (Homo sapiens, UniProt P50052).
T3 construct: purchased Eurofins ITEM26 (protocol number)
T3 sequence (P50052 1-363): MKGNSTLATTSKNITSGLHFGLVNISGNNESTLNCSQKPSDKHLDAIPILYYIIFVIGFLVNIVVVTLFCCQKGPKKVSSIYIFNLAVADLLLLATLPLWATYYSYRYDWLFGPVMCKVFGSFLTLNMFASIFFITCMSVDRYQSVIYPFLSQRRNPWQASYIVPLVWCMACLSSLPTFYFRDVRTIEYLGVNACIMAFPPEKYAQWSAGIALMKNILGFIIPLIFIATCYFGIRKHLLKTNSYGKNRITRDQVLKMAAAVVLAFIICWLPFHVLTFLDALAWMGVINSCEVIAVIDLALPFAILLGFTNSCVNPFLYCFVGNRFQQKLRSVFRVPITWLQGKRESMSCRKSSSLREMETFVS
Nature of the data set: Binding to AT2 receptor, radiometric scintillation assay (Eurofins ITEM26). Particulars: ligand 125I CGP 42112A, * rows = mean of runs; for Ki: seven-point dose-response curve; for IC50: test compounds at 1, 10, 100 and 1000 nM, read-out: AT2 GraFit IC50.

The target of data set [4] is T4, CYP1A2 (Homo sapiens, UniProt P05177).
T4 construct: isoform-specific substrates incubated with human liver microsomes; tissue Eurofins ITEMG232 (protocol number); host or cells: human liver microsomes
Nature of the data set: in vitro. The data set is classed as in vitro ADME. Particulars: human, microsomes, human liver microsomes, substrate phenacetin, read-out: CYP1A2 Inh %.
Experimental: The following substrates were used; CYP1A phenacetin, CYP2B36 bupropion, CYP2C8 paclitaxel and amodiaquine, CYP2C9 diclofenac, CYP2C19 omeprazole, CYP2D6 dextromethorphan, CYP3A midazolam and testosterone.
At the end of the incubation, the formation of metabolite was monitored by HPLC-MS/MS as the peak area response.

In data set [5] the target is CYP2C9 (Homo sapiens, UniProt P11712). Nature of the data set: CYP inhibition in human liver microsomes (Eurofins ITEMG232). The data set is classed as in vitro ADME. Set-up: isoform-specific substrates incubated with human liver microsomes; tissue Eurofins ITEMG232 (protocol number); host or cells: human liver microsomes. Particulars: human, probe diclofenac, substrate diclofenac, read-out: CYP2C9 Inh %.

In data set [6] the test system is CYP3A4&5. Nature of the data set: in vitro. To be noted: human, human liver microsomes, probe testosterone.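 Also: Read-out is the metabolite generated from the probe substrate, quantified as HPLC-MS/MS peak area once incubation ends.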
The nature of data set [7]: Metabolic stability in pooled human liver microsomes. The format is in vitro ADME. Particulars: human, pooled human liver microsomes, pooled human liver microsomes 0.5 mg/mL, 1 μM test compound, 37° C., * rows = mean of two runs. The gist of the method:
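Pooled human liver microsomes (0.5 mg/mL in PBS) preincubated ±1 mM NADPH at 37° C; test compound added at 10 min to 1 μM final. Samples at 0, 5, 15 and 60 min quenched in acetonitrile, parent quantified by LC-MS/MS against a standard curve (terfenadine internal standard). Initial metabolic rate calculated with and without NADPH.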

The target of data set [8] is T5, CYP2B6 (Homo sapiens, UniProt P20813).
T5 construct: isoform-specific substrates incubated with human liver microsomes; tissue Eurofins ITEMG232 (protocol number); host or cells: human liver microsomes
T5 sequence (P20813 1-491): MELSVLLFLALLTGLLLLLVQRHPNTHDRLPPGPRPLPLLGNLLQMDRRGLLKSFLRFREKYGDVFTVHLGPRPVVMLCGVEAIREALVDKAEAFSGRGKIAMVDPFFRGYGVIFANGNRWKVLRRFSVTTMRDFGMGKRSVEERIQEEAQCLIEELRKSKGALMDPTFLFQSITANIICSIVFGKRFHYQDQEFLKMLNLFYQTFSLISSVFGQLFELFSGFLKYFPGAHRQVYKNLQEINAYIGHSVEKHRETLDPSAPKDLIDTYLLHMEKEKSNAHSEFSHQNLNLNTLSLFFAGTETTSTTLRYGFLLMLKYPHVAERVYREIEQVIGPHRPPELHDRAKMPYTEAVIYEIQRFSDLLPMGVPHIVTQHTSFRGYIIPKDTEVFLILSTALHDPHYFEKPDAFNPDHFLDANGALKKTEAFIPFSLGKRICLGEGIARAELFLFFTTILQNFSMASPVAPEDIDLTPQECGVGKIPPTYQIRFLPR
In words: CYP inhibition in human liver microsomes (Eurofins ITEMG232). The format is in vitro ADME. To be noted: probe bupropion, substrate bupropion, read-out: CYP2B6 Inh %.

Data set [9] concerns the target CYP3A4 (Homo sapiens, UniProt P08684). Nature of the data set: CYP inhibition in human liver microsomes (Eurofins ITEMG232), midazolam substrate. To be noted: human, probe midazolam, read-out: CYP3A4 midazolam Inh %. The format is in vitro ADME. Set-up: isoform-specific substrates incubated with human liver microsomes; tissue Eurofins ITEMG232 (protocol number); host or cells: human liver microsomes.

For data set [10], the target named is T6, CYP2C8 (Homo sapiens, UniProt P10632).
T6 construct: isoform-specific substrates incubated with human liver microsomes; tissue Eurofins ITEMG232 (protocol number); host or cells: human liver microsomes
T6 sequence (P10632 1-490): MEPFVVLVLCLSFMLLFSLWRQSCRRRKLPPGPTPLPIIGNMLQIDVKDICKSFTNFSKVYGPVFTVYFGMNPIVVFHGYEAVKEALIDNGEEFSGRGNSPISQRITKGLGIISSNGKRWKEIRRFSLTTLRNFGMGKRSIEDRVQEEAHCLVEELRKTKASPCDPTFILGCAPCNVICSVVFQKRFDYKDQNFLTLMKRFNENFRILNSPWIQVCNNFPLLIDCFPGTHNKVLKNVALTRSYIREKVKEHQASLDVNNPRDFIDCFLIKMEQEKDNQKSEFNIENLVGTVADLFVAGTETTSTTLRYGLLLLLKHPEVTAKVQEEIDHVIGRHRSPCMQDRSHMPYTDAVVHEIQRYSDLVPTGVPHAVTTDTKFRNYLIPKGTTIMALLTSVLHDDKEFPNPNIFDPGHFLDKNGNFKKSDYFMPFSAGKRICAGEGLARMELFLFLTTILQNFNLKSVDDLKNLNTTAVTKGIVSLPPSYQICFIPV
Nature of the data set: CYP inhibition in human liver microsomes (Eurofins ITEMG232). The format is in vitro ADME. To be noted: human, probe paclitaxel and amodiaquine, substrate paclitaxel and amodiaquine, read-out: CYP2C8 Inh %.

Setting [11] is: with 1 mM NADPH, read-out: T1/2, + NaDPH.
[12] abbreviates: without NADPH, read-out: T1/2, no NaDPH.

Each structure is given as a SMILES string. Where two headings read alike, the source gives them in different places.

T2 sequence (P33261 whole entry, canonical isoform): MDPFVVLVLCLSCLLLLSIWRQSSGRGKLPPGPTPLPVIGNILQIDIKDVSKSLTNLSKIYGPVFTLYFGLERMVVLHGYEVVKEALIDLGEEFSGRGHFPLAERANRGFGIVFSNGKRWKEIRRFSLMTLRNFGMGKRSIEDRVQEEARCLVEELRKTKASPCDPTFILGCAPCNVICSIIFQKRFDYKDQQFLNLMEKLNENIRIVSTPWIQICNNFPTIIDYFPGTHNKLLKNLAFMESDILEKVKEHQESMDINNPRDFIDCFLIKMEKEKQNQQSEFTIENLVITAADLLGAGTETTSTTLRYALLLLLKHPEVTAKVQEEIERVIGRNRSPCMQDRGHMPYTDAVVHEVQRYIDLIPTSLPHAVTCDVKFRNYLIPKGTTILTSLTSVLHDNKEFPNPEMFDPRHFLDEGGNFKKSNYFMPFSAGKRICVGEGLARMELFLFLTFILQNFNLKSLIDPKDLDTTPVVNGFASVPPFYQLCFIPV
Sequence of CYP2C9 (P11712 whole entry, canonical isoform): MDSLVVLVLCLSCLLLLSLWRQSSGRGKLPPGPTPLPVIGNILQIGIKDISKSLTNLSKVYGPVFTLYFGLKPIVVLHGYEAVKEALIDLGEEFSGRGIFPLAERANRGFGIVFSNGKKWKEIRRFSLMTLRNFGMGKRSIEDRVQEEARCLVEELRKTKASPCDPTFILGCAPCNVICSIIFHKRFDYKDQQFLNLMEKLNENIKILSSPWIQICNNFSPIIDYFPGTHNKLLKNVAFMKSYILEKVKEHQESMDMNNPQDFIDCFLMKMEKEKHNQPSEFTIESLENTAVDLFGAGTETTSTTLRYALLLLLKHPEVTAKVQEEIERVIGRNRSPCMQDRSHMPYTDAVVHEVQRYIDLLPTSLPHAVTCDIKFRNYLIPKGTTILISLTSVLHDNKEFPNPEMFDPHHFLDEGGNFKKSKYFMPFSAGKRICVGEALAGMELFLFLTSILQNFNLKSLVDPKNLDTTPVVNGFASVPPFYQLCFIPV
T4 sequence (P05177 whole entry, canonical isoform): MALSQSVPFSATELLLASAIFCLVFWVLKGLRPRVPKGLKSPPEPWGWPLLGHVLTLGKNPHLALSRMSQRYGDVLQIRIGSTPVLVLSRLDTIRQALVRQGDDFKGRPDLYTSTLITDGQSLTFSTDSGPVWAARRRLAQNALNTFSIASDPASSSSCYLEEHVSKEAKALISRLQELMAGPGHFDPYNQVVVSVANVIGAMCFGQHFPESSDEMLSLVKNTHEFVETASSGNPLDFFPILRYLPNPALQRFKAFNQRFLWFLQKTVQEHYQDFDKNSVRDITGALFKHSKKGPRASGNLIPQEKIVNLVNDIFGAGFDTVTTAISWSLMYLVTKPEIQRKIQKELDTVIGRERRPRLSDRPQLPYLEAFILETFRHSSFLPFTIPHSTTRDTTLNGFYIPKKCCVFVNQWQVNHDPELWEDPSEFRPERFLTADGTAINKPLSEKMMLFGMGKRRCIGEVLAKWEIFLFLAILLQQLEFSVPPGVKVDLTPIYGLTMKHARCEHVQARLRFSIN
T1 sequence (P10635 whole entry, canonical isoform): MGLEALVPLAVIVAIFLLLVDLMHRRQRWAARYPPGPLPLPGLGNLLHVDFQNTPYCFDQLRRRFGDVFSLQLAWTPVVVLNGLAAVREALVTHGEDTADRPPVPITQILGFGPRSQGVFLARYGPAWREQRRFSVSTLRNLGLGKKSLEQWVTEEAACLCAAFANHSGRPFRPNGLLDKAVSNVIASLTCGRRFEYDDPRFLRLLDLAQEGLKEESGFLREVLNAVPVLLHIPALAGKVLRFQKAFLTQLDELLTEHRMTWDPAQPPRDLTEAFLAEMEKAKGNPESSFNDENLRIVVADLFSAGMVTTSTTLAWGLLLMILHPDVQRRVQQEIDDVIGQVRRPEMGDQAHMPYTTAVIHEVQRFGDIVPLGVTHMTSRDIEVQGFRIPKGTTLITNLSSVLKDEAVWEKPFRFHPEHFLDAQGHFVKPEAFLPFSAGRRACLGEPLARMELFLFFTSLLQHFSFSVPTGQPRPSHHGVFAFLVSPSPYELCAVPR
Sequence of CYP3A4 (P08684 whole entry, canonical isoform): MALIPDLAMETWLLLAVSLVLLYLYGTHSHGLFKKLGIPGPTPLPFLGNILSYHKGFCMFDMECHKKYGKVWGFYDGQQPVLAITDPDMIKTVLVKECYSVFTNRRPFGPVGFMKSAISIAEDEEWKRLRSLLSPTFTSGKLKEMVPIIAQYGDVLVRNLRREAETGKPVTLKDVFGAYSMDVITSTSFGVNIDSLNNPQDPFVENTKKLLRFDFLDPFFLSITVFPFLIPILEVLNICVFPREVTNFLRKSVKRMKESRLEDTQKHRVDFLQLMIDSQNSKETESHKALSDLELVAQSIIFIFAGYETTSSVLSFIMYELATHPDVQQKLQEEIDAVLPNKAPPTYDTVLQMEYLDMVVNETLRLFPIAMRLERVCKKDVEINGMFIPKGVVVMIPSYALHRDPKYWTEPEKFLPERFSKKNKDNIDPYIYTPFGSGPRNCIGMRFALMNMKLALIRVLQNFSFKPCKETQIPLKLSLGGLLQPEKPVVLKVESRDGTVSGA

For the compound `COc1ccc(NS(=O)(=O)c2ccc(CC(C)C)cc2-c2ccc(Cn3ccnc3C(C)(C)C)c(F)c2)nn1` [Example 23, 4′-((2-(tert-Butyl)-1H-imidazol-1-yl)methyl)-3′-fluoro-5-isobutyl-N-(6-methoxypyridazin-3-yl)-[1,1′-biphenyl]-2-sulfonamide], the inhibition at 10 µM in data set [1] was 4.5%; in data set [2], 63.5%; in data set [4], 6.6%; in data set [5], 42.9%; in data set [6], 39.7%; in data set [8], 5.7%. In addition, the inhibition at 10 µM was 55.8% in [9] and 24.6% in [10]. Moreover, in [3], the Ki came out at 320 pM. Besides, the IC50 in data set [3] was found to be 640 pM. Besides, the figures for the half-life at 1 μM in data set [7] (setting [11]) and in [7] (setting [12]) were 0.233 h and over 1 h, respectively.

As for `COc1ncnc(OC)c1NS(=O)(=O)c1ccc(CC(C)C)cc1-c1ccc(Cn2ccnc2C(C)(C)C)c(F)c1` [Example 25, 4′-((2-(tert-Butyl)-1H-imidazol-1-yl)methyl)-N-(4,6-dimethoxypyrimidin-5-yl)-3′-fluoro-5-isobutyl-[1,1′-biphenyl]-2-sulfonamide], the inhibition at 10 µM in data set [1] is 11.9%; in data set [2], 65.8%; in [4], -5.4%; in data set [5], 80.7%; in data set [6] it was 57.3%; in data set [8], 19.4%. In addition, the inhibition at 10 µM in [9] turned out to be 65.1%; in data set [10] it was 40%. For the same compound, in data set [3], the Ki is 75000 pM. The concentration for half-maximal inhibition (IC50) in [3] was 150000 pM. Further, the results for the half-life at 1 μM in [7] (setting [11]) and in [7] (setting [12]) were 0.1 h and over 1 h, respectively.

For the compound `Cc1cnc(NS(=O)(=O)c2ccc(CC(C)C)cc2-c2ccc(Cn3ccnc3C(C)(C)C)c(F)c2)nc1` [Example 26, 4′-((2-(tert-Butyl)-1H-imidazol-1-yl)methyl)-3′-fluoro-5-isobutyl-N-(5-methylpyrimidin-2-yl)-[1,1′-biphenyl]-2-sulfonamide], the inhibition at 10 µM in data set [1] was 44.1%; in data set [2] it was 46.5%; in data set [4] it was 10.3%; in [5] it was 66.4%; in data set [6], 34.9%; in data set [8], 16.9%. The inhibition at 10 µM came to 48.7% in data set [9] and 9.9% in data set [10]. Further, the Ki in data set [3] is 1680 pM. In addition, in [3], the IC50 worked out at 840 pM. Further, the half-life at 1 μM is 0.733 h in data set [7] (setting [11]) and over 1 h in [7] (setting [12]).

For the compound `CC(C)Cc1ccc(S(=O)(=O)Nc2ncccn2)c(-c2ccc(Cn3ccnc3C(C)C)c(F)c2)c1` [Example 27, 3′-Fluoro-5-isobutyl-4′-((2-isopropyl-1H-imidazol-1-yl)methyl)-N-(pyrimidin-2-yl)-[1,1′-biphenyl]-2-sulfonamide], the inhibition at 10 µM amounted to 13.8% in [1]; 22.2% in data set [2]; 17.4% in [4]; 31.6% in data set [5]; 25.9% in data set [6]; 15.7% in data set [8]. The inhibition at 10 µM was 28.3% in data set [9] and 21.3% in data set [10]. In addition, in data set [3], the Ki was determined as 310 pM. Also, in data set [3], the IC50 is 610 pM. In addition, the half-life at 1 μM in data set [7] (setting [11]) and in [7] (setting [12]) was over 1 h each time.

For `Cc1nccn1Cc1ccc(-c2cc(CC(C)C)ccc2S(=O)(=O)Nc2ncccn2)cc1F` [Example 28, 3′-Fluoro-5-isobutyl-4′-((2-methyl-1H-imidazol-1-yl)methyl)-N-(pyrimidin-2-yl)-[1,1′-biphenyl]-2-sulfonamide], the inhibition at 10 µM in [1] was determined as 14.2%; in data set [2], 65%; in data set [4], 22.2%; in data set [5], 31.1%; in data set [6], 37.4%; in data set [8] it was 40.8%. For the same compound, the inhibition at 10 µM was determined as 34.8% in data set [9] and 41.6% in [10]. The Ki in data set [3] came to 400 pM. Further, the IC50 in data set [3] is 800 pM. The half-life at 1 μM in [7] (setting [11]) and in [7] (setting [12]) was over 1 h each time.

As to `CCc1nccn1Cc1ccc(-c2cc(CC(C)C)ccc2S(=O)(=O)Nc2ncccn2)cc1F` [Example 29, 4′-((2-Ethyl-1H-imidazol-1-yl)methyl)-3′-fluoro-5-isobutyl-N-(pyrimidin-2-yl)-[1,1′-biphenyl]-2-sulfonamide], the inhibition at 10 µM in data set [1] stood at 7.4%; in data set [2], 43.6%; in data set [4], 13.6%; in data set [5], 43%; in [6], 21.8%; in [8], 25%. Besides, the inhibition at 10 µM in data set [9] turned out to be 15.4%; in [10], 58.2%. The inhibitory constant (Ki) in data set [3] came out at 450 pM. Besides, in [3], the half-inhibitory concentration (IC50) is 900 pM. For the same compound, the half-life at 1 μM in [7] (setting [11]) and in data set [7] (setting [12]) was over 1 h throughout.

(Values after US12441718B2, “Selective angiotensin II compounds” (VICORE PHARMA AB, priority 2021, dated 2025).)
